Measurements published in patent US20260374794A1, “COMPOUNDS TARGETING MUTANT OF P53” (JACOBIO PHARMACEUTICALS CO., LTD., priority 2022, published 2026).
Like-named read-outs stand apart in the source and are kept apart here.

Key:
[1] = molecular target: p53(Y220C)_NUGC-3 (Homo sapiens, UniProt P04637, Y220C); experiment: Reporter gene assay (NUGC-3_P53_Luc cells); type: cell-based; settings: 6 hours, 37 °C, luciferase, normalized to Ref-1a 10 μM, EC50 = concentration at 50% Activity, read-out: p53(Y220C)_NUGC-3 EC50
Method: NUGC-3_P53_Luc single clonal cell line was established using pGL4.38[luc2P/p53 RE/Hygro] Vector (E365A, promega). NUGC-3_P53_Luc single clonal cells were cultured in 37 °C cell incubator before use. NUGC-3_P53_Luc cells were collected and washed twice with PBS to remove phenol red and then resuspended in medium to a proper concentration. Tested compound dilutions were transferred into 384 well assay plates (PerkinElmer). A desired number of cells was seeded into the assay plate and cultured for 6 hours at 37 °C cell incubator. Britelite plus Luciferase Assay Reagent were added into each well and the luminescence value was recorded on Envision. The percent of activity value of compounds treated wells was normalized between high control and low control. Wells containing cells and Ref-la (10 μM) served as high control, and wells containing cells and same percentage of DMSO served as low control. Activity value (%)=(Luminescence readoutCompound treated−Luminescence readoutLow control)/(Luminescence readoutHigh control−Luminescence readoutLow control)*100%. Then the data were analyzed either by fitting a 4-parameter logistic model or by Excel to calculate EC50 values and the EC50 was the concentration at 50% Activity on the curve.

[2] = molecular target: T1, p53(Y220C) (Homo sapiens, UniProt P04637, Y220C); experiment: In vitro DNA binding assay (HTRF), His-p53 Y220C (94-294) with biotinylated p53 consensus DNA; type: biochemical
T1 construct: His-p53 Y220C (94-294) protein
Method: After His-p53 Y220C (94-294) protein was placed with a compound in the present of MAb Anti His-Tb cryptate (Cisbio, Cat. NO. 61HI2TLA) in a 384 well microplate (Greiner) for 15 min at 25 °C, the assay plate was transferred into 27 °C incubator and incubated for 60 min. Biotinalyted p53 consensus DNA (ID: p53-SEQUENCE 2 —F: 5′(biotin)-[…] 3′ —R: 5′ […] 3′) was added into the assay plate in the present of Streptaidin-d2 (Cisbio, Cat. NO. 610SADLF) cryptate (Final concentration: 20 mM HEPES pH=7.4, 75 mM KCl, 1 mM MgCl2, 0.1% (w/v) BSA, 1 mM DTT, 2.5 nM His-P53 Y220C (94-294) protein, 0.33 nM MAb Anti His-Tb cryptate, 2.5 nM Streptaidin-d2 cryptate, 10 nM Biotinalyted DNA) and incubated for another 60 min. Wells containing 2 μM reference compound Ref-1a served as high control, and wells containing same percentage of DMSO served as low control. Homogeneous time-resolved fluorescence (HTRF) signals were read on Tecan Spark multimode microplate reader. HTRF ratios for each individual well were calculated by equation: HTRF ratio=(Signal F665/Signal F620)*1000. The percent of activation of compounds treated wells were normalized between high control and low control (% Activation=(HTRF ratiocompound treated−HTRF ratiolow control)/(HTRF ratiohigh control−HTRF ratiolow control)*100%). Then the data were analyzed either by fitting a 4-parameter logistic model or by Excel to calculate EC50 values. And the EC50 was the concentration at 50% Activation on the curve.

[3] = tested on: NUGC-3 (P53 Y220C); experiment: Cell viability assay (CellTiter-Glo); type: cell-based; settings: Homo sapiens, 144 h, NUGC-3 cells, 6 days, 37 °C
Method: Cells were collected and counted. A desired number of cells was seeded into 96-well microplate and cultured in 37 °C cell incubator overnight. Compounds dissolved in cell culture medium were added into cell plate and cultured for 6 days. After balancing CellTiter-Glo reagent and cells at room temperature for 30 min, equal volume of CellTiter-Glo reagents was added to assay plate and shaken for 2 min for cell lysis. The cells were balanced at room temperature for 10 minutes and Luminescence signal was read using Envision. The percent of cell viability for compounds treated wells were normalized between High control and low control. Wells containing cell culture medium and same percentage DMSO served as Low control. Wells containing cells and same percentage DMSO served as High control. Cell viability (%)=(Luminescence readoutCompound treated−Luminescence readoutLow control)/(Luminescence readoutHigh control−Luminescence readoutLow control)*100%. Then the data were analyzed either by fitting a 4-parameter logistic model or by Excel to calculate IC50 values. And the IC50 was the concentration at […] Cell viability on the curve.

[4] = HTRF, 27 °C, His-p53 Y220C (94-294) 2.5 nM, biotinylated DNA 10 nM, normalized to 2 μM Ref-1a, EC50 = concentration at 50% Activation, read-out: p53(Y220C) EC50

| SMILES | EC50 [1] [nM] | EC50 [2, 4] [nM] | other results |
| --- | --- | --- | --- |
| COc1cc(P(C)(C)=O)ccc1NCC#Cc1sc2c(N[C@@H]3CC[N@@+](C)([O-])C[C@@H]3F)cccc2c1CC(F)(F)F (single isomer, unassigned) [Example 7] | 3940 | 81 | – |
| COc1cc(P(C)(C)=O)ccc1NCC#Cc1sc2c(N[C@@H]3CC[N@+](C)([O-])C[C@@H]3F)cccc2c1CC(F)(F)F (single isomer, unassigned) [Example 10] | 11100 | 53 | – |
| CN1CC[C@@H](Nc2cccc3c(CC(F)(F)F)c(C#CCNc4ccc(P(C)(C)=O)c5ccoc45)sc23)[C@@H](F)C1 [Example 2, (7-((3-(7-(((3S,4R)-3-fluoro-1-methylpiperidin-4-yl)amino)-3-(2,2,2-trifluoroethyl)benzo[b]thiophen-2-yl)prop-2-yn-1-yl)amino)benzofuran-4-yl)dimethylphosphine oxide] | 196 | – | – |
| CN1CC[C@@H](Nc2cccc3c(CC(F)(F)F)c(C#CCNc4ccc(P(C)(C)=O)cc4-c4cc[nH]n4)sc23)[C@@H](F)C1 [Example 3, (4-((3-(7-(((3S,4R)-3-fluoro-1-methylpiperidin-4-yl)amino)-3-(2,2,2-trifluoroethyl)benzo[b]thiophen-2-yl)prop-2-yn-1-yl)amino)-3-(1H-pyrazol-3-yl)phenyl)dimethylphosphine oxide] | 55 | – | IC50 [3]: 1400 nM |
| COc1cc(P(C)(C)=O)ccc1NCC#Cc1sc2c(N[C@H]3CCCN(C)C3)cccc2c1CC(F)(F)F [Example 29, (S)-(3-methoxy-4-((3-(7-((1-methylpiperidin-3-yl)amino)-3-(2,2,2-trifluoroethyl)benzo[b]thiophen-2-yl)prop-2-yn-1-yl)amino)phenyl)dimethylphosphine oxide] | – | 155 | – |
| CN1CC[C@@H](Nc2cccc3c(CC(F)(F)F)c(C#CCNc4ccc(P(C)(C)=O)cc4-c4nc(=O)o[nH]4)sc23)[C@@H](F)C1 [Example 39, 3-(5-(dimethylphosphoryl)-2-((3-(7-(((3S,4R)-3-fluoro-1-methylpiperidin-4-yl)amino)-3-(2,2,2-trifluoroethyl)benzo[b]thiophen-2-yl)prop-2-yn-1-yl)amino)phenyl)-1,2,4-oxadiazol-5(2H)-one] | – | 292 | – |
| COc1cc(P(C)(C)=O)ccc1NCC#Cc1sc2c(N[C@H]3CN4CCC3CC4)cccc2c1CC(F)(F)F [Example 46, (R)-(3-methoxy-4-((3-(7-(quinuclidin-3-ylamino)-3-(2,2,2-trifluoroethyl)benzo[b]thiophen-2-yl)prop-2-yn-1-yl)amino)phenyl)dimethylphosphine oxide] | – | – | EC50 [2]: 124 nM |
| [2H]C([2H])([2H])Oc1cc(P(C)(C)=S)ccc1NCC#Cc1sc2c(N[C@@H]3CCN(C)C[C@@H]3F)cccc2c1CC(F)(F)F [Example 47, (4-((3-(7-(((3S,4R)-3-fluoro-1-methylpiperidin-4-yl)amino)-3-(2,2,2-trifluoroethyl)benzo[b]thiophen-2-yl)prop-2-yn-1-yl)amino)-3-(methoxy-d3)phenyl)dimethylphosphine sulfide] | – | 180 | – |
| COc1cc(S(C)(=O)=O)ccc1NCC#Cc1cc2c(N[C@@H]3CCN(C)C[C@@H]3F)cccc2n1CC(F)(F)F [Ref-1a, reference compound] | 50 | – | – |

Second part, led by results:

| EC50 [1] [nM] | EC50 [2, 4] [nM] | SMILES | other results |
| --- | --- | --- | --- |
| 7230 | 38 | COc1cc([S@](C)(=N)=O)ccc1NCC#Cc1sc2c(N[C@@H]3CC[N@+](C)([O-])C[C@@H]3F)cccc2c1CC(F)(F)F (single isomer, unassigned) [Example 8] | – |
| 1900 | 62 | COc1cc([S@](C)(=N)=O)ccc1NCC#Cc1sc2c(N[C@@H]3CC[N@@+](C)([O-])C[C@@H]3F)cccc2c1CC(F)(F)F (single isomer, unassigned) [Example 9] | – |
| 138 | 104 | COc1cc(P(C)(C)=O)ccc1NCC#Cc1sc2c(NC3CN(C)CC3F)cccc2c1CC(F)(F)F (centres unmarked) [Example 13, (4-((3-(7-((4-fluoro-1-methylpyrrolidin-3-yl)amino)-3-(2,2,2-trifluoroethyl)benzo[b]thiophen-2-yl)prop-2-yn-1-yl)amino)-3-methoxyphenyl)dimethylphosphine oxide] | IC50 [3]: 1390 nM |
| – | 74 | COc1cc([S@@](=N)(=O)C(C)C)ccc1NCC#Cc1sc2c(N[C@@H]3CCN(C)C[C@@H]3F)cccc2c1CC(F)(F)F [Example 27, (S)-(4-((3-(7-(((3S,4R)-3-fluoro-1-methylpiperidin-4-yl)amino)-3-(2,2,2-trifluoroethyl)benzo[b]thiophen-2-yl)prop-2-yn-1-yl)amino)-3-methoxyphenyl)(imino)(isopropyl)-16-sulfanone] | – |
| – | 117 | COc1cc(P(C)(C)=O)ccc1NCC#Cc1sc2c(N[C@H]3CCN(C)C[C@H]3F)cccc2c1[C@H](O)C(F)(F)F [Example 32, (4-((3-(7-(((3R,4S)-3-fluoro-1-methylpiperidin-4-yl)amino)-3-((S)-2,2,2-trifluoro-1-hydroxyethyl)benzo[b]thiophen-2-yl)prop-2-yn-1-yl)amino)-3-methoxyphenyl)dimethylphosphine oxide] | – |
| – | 192 | COc1cc(S(C)(=O)=O)ccc1NCC#Cc1sc2c(N[C@H]3CCN(C)C[C@H]3F)cccc2c1CC(F)(F)F [Example 35, (3R,4S)-3-fluoro-N-(2-(3-((2-methoxy-4-(methylsulfonyl)phenyl)amino)prop-1-yn-1-yl)-3-(2,2,2-trifluoroethyl)benzo[b]thiophen-7-yl)-1-methylpiperidin-4-amine] | – |
| – | 373 | COc1cc(P(C)(C)=O)ccc1NCC#Cc1sc2c(N[C@H]3CCN(C)C[C@@H]3F)cccc2c1CC(F)(F)F [Example 38, (4-((3-(7-(((3S,4S)-3-fluoro-1-methylpiperidin-4-yl)amino)-3-(2,2,2-trifluoroethyl)benzo[b]thiophen-2-yl)prop-2-yn-1-yl)amino)-3-methoxyphenyl)dimethylphosphine oxide] | – |
| – | 473 | COc1cc(-c2nc(=O)o[nH]2)ccc1NCC#Cc1sc2c(N[C@@H]3CCN(C)C[C@@H]3F)cccc2c1CC(F)(F)F [Example 40, 3-(4-((3-(7-(((3S,4R)-3-fluoro-1-methylpiperidin-4-yl)amino)-3-(2,2,2-trifluoroethyl)benzo[b]thiophen-2-yl)prop-2-yn-1-yl)amino)-3-methoxyphenyl)-1,2,4-oxadiazol-5(2H)-one] | – |
| – | 188 | COc1cc([S@](=N)(=O)C(F)F)ccc1NCC#Cc1sc2c(N[C@@H]3CCN(C)C[C@@H]3F)cccc2c1CC(F)(F)F [Example 51, (S)-(difluoromethyl)(4-((3-(7-(((3S,4R)-3-fluoro-1-methylpiperidin-4-yl)amino)-3-(2,2,2-trifluoroethyl)benzo[b]thiophen-2-yl)prop-2-yn-1-yl)amino)-3-methoxyphenyl)(imino)-16-sulfanone] | – |
| – | 135 | COc1cc([S@@](=N)(=O)C(F)F)ccc1NCC#Cc1sc2c(N[C@@H]3CCN(C)C[C@@H]3F)cccc2c1CC(F)(F)F [Example 52, (R)-(difluoromethyl)(4-((3-(7-(((3S,4R)-3-fluoro-1-methylpiperidin-4-yl)amino)-3-(2,2,2-trifluoroethyl)benzo[b]thiophen-2-yl)prop-2-yn-1-yl)amino)-3-methoxyphenyl)(imino)-16-sulfanone] | – |
